Values after ≈ are worked out from the molar mass of the structure shown.

19 compounds from ChEMBL document CHEMBL5233261, “Recent accomplishments on the synthetic/biological facets of pharmacologically active 1H-1,2,3-triazoles” (Eur J Med Chem, 2021) can be followed below.

Assay [1] relates to Mycobacterium tuberculosis. Nature of the assay: Antibacterial activity against Mycobacterium tuberculosis H37Rv ATCC 27294 strain assessed as bacterial growth inhibition by MABA Assay. It counts as functional.
Assay [2] relates to Mycobacterium tuberculosis. Nature of the assay: Antibacterial activity against Mycobacterium tuberculosis H37Rv strain assessed as bacterial growth inhibition incubated for 7 days by Resazurin Microtiter Assay. It counts as functional. The settings on record: 168 h, time 7 day. Background: Resazurin is reduced to fluorescent resorufin, in cell work by metabolically active cells.

Assay [3] relates to Escherichia coli. The experiment in a line: Antibacterial activity against Escherichia coli assessed as bacterial growth inhibition incubated for 24 hrs by agar well diffusion assay. It counts as functional.
The subject of assay [4] is Staphylococcus aureus. Nature of the assay: Antibacterial activity against Staphylococcus aureus assessed as bacterial growth inhibition incubated for 24 hrs by agar well diffusion assay. It counts as functional. (Agar diffusion results depend on both activity and mobility in agar.)
In assay [5] the test system is Bacillus subtilis. The experiment in a line: Antibacterial activity against Bacillus subtilis assessed as bacterial growth inhibition incubated for 24 hrs by agar well diffusion assay. It counts as functional.
For assay [6], the system named is MCF7. Nature of the assay: Anticancer activity against human MCF7 cells assessed as cell growth inhibition by MTT assay. It counts as functional, cell-based. In general terms: Formazan colour is commonly taken as a measure of viable cells.
The subject of assay [7] is Pseudomonas aeruginosa. The experiment in a line: Antibacterial activity against Pseudomonas aeruginosa assessed as bacterial growth inhibition. It counts as functional.
For assay [8], the system named is MCF7. Nature of the assay: Anticancer activity against human MCF7 cells assessed as cell growth inhibition incubated for 48 hrs by SRB assay. It counts as functional, cell-based. The settings on record: MCF7, 48 h.
The test system of assay [9] is A549. The experiment in a line: Anticancer activity against human A549 cells assessed as cell growth inhibition incubated for 48 hrs by SRB assay. The settings on record: A549, 48 h. It counts as functional, cell-based.
For assay [10], the system named is HT-29. Nature of the assay: Anticancer activity against human HT-29 cells assessed as cell growth inhibition incubated for 48 hrs by SRB assay. It counts as functional, cell-based. The settings on record: HT-29, 48 h.
The test system of assay [11] is HCT-116. Nature of the assay: Anticancer activity against human HCT-116 cells assessed as cell growth inhibition incubated for 48 hrs by SRB assay. It counts as functional, cell-based. To be noted: HCT-116, 48 h.
In assay [12] the test system is MCF7. Nature of the assay: Anticancer activity against human MCF7 cells assessed as cell growth inhibition incubated for 48 hrs by MTT assay. It counts as functional, cell-based. To be noted: MCF7, 48 h.
Assay [13] relates to MDA-MB-231. The experiment in a line: Potency index, ratio of Tamoxifen IC50 to test compound IC50 for cytotoxicity against human MDA-MB-231 cells by MTT assay. It counts as functional.
The subject of assay [14] is MCF7. Nature of the assay: Potency index, ratio of Tamoxifen IC50 to test compound IC50 for cytotoxicity against human MCF7 cells by MTT assay. It counts as functional.
In assay [15] the test system is Plasmodium berghei. The experiment in a line: In vivo antimalarial activity against Plasmodium berghei infected in swiss albino mouse at 50 microg/kg, ip administered as single dose for 4 to 6 weeks relative to control. It counts as functional. To be noted: dose 50 µg/kg, time 4-6 weeks.
Assay [16] concerns Plasmodium falciparum. Nature of the assay: Antimalarial activity against Plasmodium falciparum 3D7 strain incubated for 40 hrs by Giemsa staining based microscopic analysis. It counts as functional, organism-based. To be noted: 3D7, 40 h.
The test system of assay [17] is Plasmodium falciparum. The experiment in a line: Antimalarial activity against Plasmodium falciparum RKL-2 strain incubated for 40 hrs by Giemsa staining based microscopic analysis. It counts as functional, organism-based. To be noted: RKL-2, 40 h.
For assay [18], the system named is DU-145. The experiment in a line: Anticancer activity against human DU-145 cells assessed as cell growth inhibition by MTT assay. It counts as functional, cell-based.
The test system of assay [19] is MDA-MB-231. Nature of the assay: Anticancer activity against human MDA-MB-231 cells assessed as cell growth inhibition incubated for 48 hrs by MTT assay. It counts as functional, cell-based. The settings on record: MDA-MB-231, 48 h.
The test system of assay [20] is Plasmodium falciparum. The experiment in a line: Antimalarial activity against Plasmodium falciparum 3D7 strain by MSF assay. It counts as functional, organism-based.
The test system of assay [21] is MCF7. The experiment in a line: Anticancer activity against human MCF7 cells assessed as cell growth inhibition incubated for 72 hrs by MTT assay. It counts as functional, cell-based. To be noted: MCF7, 72 h.
In assay [22] the test system is HeLa. The experiment in a line: Anticancer activity against human HeLa cells assessed as cell growth inhibition incubated for 72 hrs by MTT assay. It counts as functional, cell-based.
Assay [23] deals with Escherichia coli. The experiment in a line: Antibacterial activity against Escherichia coli assessed as bacterial growth inhibition. It counts as functional.
In assay [24] the test system is Bacillus subtilis. The experiment in a line: Antibacterial activity against Bacillus subtilis assessed as bacterial growth inhibition. It counts as functional.
Assay [25] concerns Aspergillus niger. The experiment in a line: Antifungal activity against Aspergillus niger assessed as […] growth inhibition. It counts as functional.
Assay [26] relates to Staphylococcus epidermidis. Nature of the assay: Antibacterial activity against Staphylococcus epidermidis assessed as bacterial growth inhibition. It counts as functional.
Assay [27] concerns Candida albicans. The experiment in a line: Antifungal activity against Candida albicans assessed as […] growth inhibition. It counts as functional.
The subject of assay [28] is MCF7. Nature of the assay: Anticancer activity against human MCF7 cells assessed as cell growth inhibition incubated for 24 hrs by MTT assay. To be noted: MCF7, 24 h. It counts as functional, cell-based.
The test system of assay [29] is Staphylococcus aureus. The experiment in a line: Antibacterial activity against Staphylococcus aureus ATCC 6538 assessed as bacterial growth inhibition by agar well diffusion assay. It counts as functional.
The subject of assay [30] is Escherichia coli. Nature of the assay: Antibacterial activity against Escherichia coli ATCC 11229 assessed as bacterial growth inhibition by agar well diffusion assay. It counts as functional.
Assay [31] has as its system Listeria. The experiment in a line: Antibacterial activity against Listeria assessed as bacterial growth inhibition by agar well diffusion assay. It counts as functional.
For assay [32], the target named is Enoyl-[acyl-carrier-protein] reductase [NADH] (Mycobacterium tuberculosis) (UniProt P9WGR1). Nature of the assay: Inhibition of Mycobacterium tuberculosis InhA at 50 microM relative to control.
The mark [33] stands for this setting: Pseudomonas aeruginosa, read-out: MIC.

Chain of Enoyl-[acyl-carrier-protein] reductase [NADH] (Mycobacterium tuberculosis) (P9WGR1 whole entry): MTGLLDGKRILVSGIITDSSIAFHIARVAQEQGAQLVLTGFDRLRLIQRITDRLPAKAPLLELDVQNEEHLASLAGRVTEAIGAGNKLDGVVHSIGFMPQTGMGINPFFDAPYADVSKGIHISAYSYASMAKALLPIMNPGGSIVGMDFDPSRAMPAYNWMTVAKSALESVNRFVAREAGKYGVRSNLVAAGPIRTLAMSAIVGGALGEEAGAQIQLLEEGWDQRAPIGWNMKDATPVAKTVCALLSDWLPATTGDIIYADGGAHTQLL

In the case of `COc1ccc(C(=O)Cn2cc(CNC(=O)c3cc4cc(OC)ccc4nc3Cl)nn2)cc1`, in assay [1], the MIC amounted to 1.6 µg/mL (≈ 3.43 µM).
Consider `Cc1cc(=O)oc2cc(OCc3cn(CCCCCCCCn4cc(COc5cc6oc(=O)cc(C)c6cc5Cl)nn4)nn3)c(Cl)cc12`, for which the MIC in assay [2] worked out at 1.56 µg/mL (≈ 2.25 µM). For the same compound, the results for the “inhibition zone (IZ)” value in assay [3], in assay [4] and in assay [5] were 14 mm, 16 mm and 19 mm, respectively.
What is called IC50 is the midpoint of a concentration-inhibition curve. `COc1cc([C@H]2c3cc4c(cc3[C@H](OCc3cn([C@@H]5O[C@H](COC(C)=O)[C@H](OC(C)=O)[C@H](OC(C)=O)[C@H]5OC(C)=O)nn3)[C@@H]3COC(=O)[C@@H]23)OCO4)cc(OC)c1OC`: in assay [6], the IC50 is 1250 nM.
As for `NC(=O)N/N=C/c1ccccc1OCc1cn(-c2ccc(Br)cc2)nn1`, the MIC in assay [7] (setting [33]) was found to be 60.2 µM (≈ 25 µg/mL).
In the case of `NC(=O)N/N=C/c1ccc(OCc2cn(-c3ccc(F)cc3)nn2)cc1`, in assay [7] (setting [33]), the MIC turned out to be 35.3 µM (≈ 12.5 µg/mL).
As for `Cc1ccc(-c2nn(-c3ccccc3)cc2/C=C/C(=O)OCc2cn(-c3ccc([N+](=O)[O-])cc3)nn2)cc1`, the IC50 in assay [8] was 1760 nM; in [9], 1960 nM; in [10], 4490 nM; in assay [11] it was 3590 nM.
On to `N#CC1=C(N)Oc2cc3c(cc2C12C(=O)N(Cc1cn(Cc4ccc([N+](=O)[O-])cc4)nn1)c1ccccc12)[nH]c1ccccc13` (stereo not given), for which, in assay [12], the concentration for half-maximal inhibition (IC50) was determined as 2130 nM.
Take `Cc1ncc([N+](=O)[O-])n1Cc1cn(CCCCCN2C(=O)C(=O)c3cc(Cl)ccc32)nn1`: the “Ratio IC50” value in [13] came out at 5; in assay [14], 2.
In assay [15], `C[C@H]1[C@H](N=[N+]=[N-])O[C@@H]2O[C@]3(C)CC[C@H]4[C@H](C)CC[C@@H]1[C@@]24OO3` registered an Activity of 59%. In addition, the figures for the half-maximal inhibitory concentration (IC50) in [16] and in assay [17] were 0.066 µg/mL (≈ 0.213 µM) and 0.865 µg/mL (≈ 2.8 µM), respectively.
Take `C#CCCO[C@@H]1O[C@@H]2O[C@]3(C)CC[C@H]4[C@H](C)CC[C@@H]([C@H]1C)[C@@]24OO3`: the concentration for half-maximal inhibition (IC50) in [16] was found to be 0.215 µg/mL (≈ 0.639 µM); in assay [17], 8 µg/mL (≈ 23.8 µM).
For `COc1cc([C@H]2c3cc4c(cc3[C@H](OCc3cn([C@@H]5O[C@H](COC(C)=O)[C@@H](OC(C)=O)[C@H](OC(C)=O)[C@H]5OC(C)=O)nn3)[C@@H]3COC(=O)[C@@H]23)OCO4)cc(OC)c1OC`, in assay [18], the IC50 worked out at 1020 nM.
Regarding `CCC(C)n1cc(CN2C(=O)C3(C(C#N)=C(N)Oc4cc5c(cc43)[nH]c3ccccc35)c3ccccc32)nn1` (stereo not given), in [19], the IC50 turned out to be 2130 nM.
In assay [20], `O=C(CCl)NCCNc1ccnc2cc(Cl)ccc12` displayed an IC50 of 38.8 nM.
Regarding `Cc1ccc(-n2cc(CSc3nnc(C(C)c4ccc(CC(C)C)cc4)o3)nn2)c(C)c1` (stereo not given), the values for the concentration for half-maximal inhibition (IC50) in assay [21] and in assay [22] were 31 µg/mL (≈ 69.3 µM) and 27.5 µg/mL (≈ 61.4 µM), respectively.
On to `Cc1cc(=O)oc2cc(OCc3cn(CCCCCCn4cc(COc5cc6oc(=O)cc(C)c6cc5Cl)nn4)nn3)c(Cl)cc12`, for which the MIC in assay [2] came to 1.56 µg/mL (≈ 2.34 µM). Further, the figures for the “inhibition zone (IZ)” value in assay [3], in assay [4] and in assay [5] were 14 mm, 16 mm and 19 mm, respectively.
Consider `O=C(Cn1cc(-c2ccccc2)nn1)Nc1ccc(F)cc1`, for which the MIC in assay [23], in [24], in assay [7], in assay [25], in assay [26] and in assay [27] was 0.201 umol/cm3 throughout.
On to `CCOC(=O)[C@H]1Cc2c([nH]c3ccccc23)CN1Cc1cn(CCCN2C(=O)C(=O)c3ccccc32)nn1`, for which, in assay [28], the IC50 is 37400 nM.
As to `CC(C)c1ccc(-c2cc(-c3ccc(Cl)cc3)nc(OCc3cn(CC(=O)O)nn3)c2C#N)cc1`, the MIC in assay [29] is 19.2 µg/mL (≈ 39.3 µM); in assay [30], 9.6 µg/mL (≈ 19.7 µM); in [31] it was 9.6 µg/mL (≈ 19.7 µM).
The inhibition is the share of the control response that was lost under treatment. Low values mean a weak effect, high ones a strong effect. In assay [32], `COc1cc(-n2cc(CS(=O)(=O)C3c4ccccc4-c4ccccc43)nn2)cc(OC)c1OC` came in with an inhibition of 73%.
